Reference: patent publication US5830672A, “Elisa kit for the rapid determination of N-acetyltransferase (NAT2) phenotypes” (priority 1996, dated 1998)

Assays:
AAMU-Ab = experiment: Competitive antigen ELISA, cross-reactivity of AAMU-Ab; assay type: binding, rabbit; conditions: for % Cross-Reaction AAMU-Ab: 0 = absence of inhibition or inhibition no higher than 40% at highest concentration tested (5 × 10^-3 M)
Method: (§1) Four mature females New Zealand white rabbits (Charles River Canada, St-Constant, Que., Canada) were used for antibody production. The protocol employed in this study was approved by the McGill University Animal Care Committee in accordance with the guidelines from the Canadian Council on Animal Care. An isotonic saline solution (0.6 mL) containing […] of BSA conjugated antigen was emulsified with 0.6 mL of a complete Freund's adjuvant. 0.5 mL of the emulsion (100 mg of antigen) was injected per rabbit intramuscularly or subcutaneously. Rabbits were subsequently boosted at intervals of three weeks with 50 mg of antigen emulsified in incomplete Freund's adjuvant. Blood was collected by venipuncture of the ear 10-14 days after boosting. Antisera were stores at 4° C. in the presence of 0.01% sodium azide. Buffers and water without additives were filtered through millipore filters and kept for 1 week. BSA, antibodies, Tween™ 20 and horse radish peroxidase conjugates were added to these buffers and water just prior to use. Urine samples were usually collected 4 hours after drinking a cup of coffee (instant or brewed with approximately 100 mg of caffeine per cup) and stored at -80° C. They were diluted 10 times with sodium phosphate buffer (620 mosm, pH 7.50) and were subsequently diluted with water to give concentrations of AAMU and 1X no higher than 3×10^-6 M in the ELISA. All the pipettings were done with an eight-channel pipette, except those of the antibody and sample solutions. Starting with the last well, 100 μL of a carbonate buffer (100 mM, pH 9.6) containing 2.5 μg mL^-1 antibodies was pipetted. […] After the initial wash, unoccupied sites were blocked by incubation for 90 min. at room temperature with 100 μL TPB containing 3% BSA. The wells were washed four times with 100 μL TPB. […] AAMU or 1X, 2×10^-4 to 2×10^-8 M) or sample in duplicate. The microplate was gently shaken with an orbital shaker at room temperature for 3-4 hours. […] To the washed plate was added 150 μL of a substrate buffer composed of citric acid (25 mM) and sodium phosphate dibasic buffer (50 mM, pH 5.0) containing 0.06% hydrogen peroxide and 0.04% o-phenylenediamine hydrochloride. […] Buffers and water without additives were filtered through millipore filters and kept for 1 week. BSA, antibodies, Tween™ 20 and horse radish peroxidase conjugates were added to these buffers and water just prior to use. Urine samples were usually collected 4 hours after drinking a cup of coffee (instant or brewed with approximately 100 mg of caffeine per cup) and stored at -80° C. They were diluted 10 times with sodium phosphate buffer (620 mosm, pH 7.50) and were subsequently diluted with water to give concentrations of AAMU and 1X no higher than 3×10^-6 M in the ELISA. All the pipettings were done with an eight-channel pipette, except those of the antibody and sample solutions. Starting with the last well, 100 μL of a carbonate buffer (100 mM, pH 9.6) containing 2.5 μg mL^-1 antibodies was pipetted. […] After the initial wash, unoccupied sites were blocked by incubation for 90 min. at room temperature with 100 μL TPB containing 3% BSA. The wells were washed four times with 100 μL TPB. […] AAMU or 1X, 2×10^-4 to 2×10^-8 M) or sample in duplicate. The microplate was gently shaken with an orbital shaker at room temperature for 3-4 hours. […] To the washed plate was added 150 μL of a substrate buffer composed of citric acid (25 mM) and sodium phosphate dibasic buffer (50 mM, pH 5.0) containing 0.06% hydrogen peroxide and 0.04% o-phenylenediamine hydrochloride. […] Each curve represents triplicate determinations in a single run. The error bars represent standard deviations. For data point with no error bars, the error bars are less the size of the symbol. […] The cross reactivities of AAMU-Ab and 1X-Ab were tested using a wide variety of caffeine metabolites and structural analogs (Table 1 below).

1X-Ab = experiment: Competitive antigen ELISA, cross-reactivity of 1X-Ab; assay type: binding, rabbit; conditions: for % Cross-Reaction 1X-Ab: 0 = absence of inhibition or inhibition no higher than 40% at highest concentration tested (5 × 10^-3 M)
Method: as §1

[1] = test system: N-acetyltransferase (NAT2); conditions: rapid acetylators at greater risk of severe toxicity; cited from earlier work

IC50 (1X-Ab; 1X-Ab, read-out: concentration required for 50% inhibition in the competitive antigen ELISA)	IC50 (AAMU-Ab; AAMU-Ab, read-out: concentration required for 50% inhibition in the competitive antigen ELISA)	SMILES	% Cross-Reaction AAMU-Ab (AAMU-Ab)	% Cross-Reaction 1X-Ab (1X-Ab)	correlation between toxicity and acetylator phenotype [1]
		Nc1nc2nc[nH]c2c(=O)[nH]1 [Guanine]	0%	0%	
		Cc1nc2[nH]c(=O)[nH]c(=O)c2[nH]1 [8-Methyl Xanthine]	0%	0%	
		Cn1c(=O)c2c(ncn2C)n(C)c1=O [1,3,7-Trimethyl Xanthine (Caffeine), 1,3,7-Trimethyl Xanthine]	0%	0%	
		Cn1cnc2c1c(=O)[nH]c(=O)n2C [3,7-Dimethyl Xanthine (Theobromine), 3,7-Dimethyl Xanthine]	0%	0%	
		Cn1c(=O)[nH]c(=O)c2[nH]cnc21 [3-Methyl Xanthine]	0%	0%	
10 µM		Cn1c(=O)[nH]c2nc[nH]c2c1=O [1-Methyl Xanthine (1X), 1-Methyl Xanthine]	0%	100%	
		O=c1[nH]cnc2nc[nH]c12 [Hypoxanthine]	0%	0%	
		Cn1c(=O)[nH]c2[nH]c(=O)n(C)c2c1=O [1,7-Dimethyluric acid]	0%	0%	
		CN(C)CCN1C(=O)c2cccc3cc(N)cc(c23)C1=O [amonafide]			direct correlation between toxicity and the acetylator phenotype
		Cn1c(=O)[nH]c2ncn(C)c2c1=O [1,7-Dimethyl Xanthine (Paraxanthine), 1,7-Dimethyl Xanthine]	0%	0.5%	
	1.5 µM	CC(=O)Nc1c(N)[nH]c(=O)n(C)c1=O	100%	0%	
		CC(=O)Nc1c(N)[nH]c(=O)[nH]c1=O [5-Acetamino-6-amino-uracil]	0.6%	0%	
		O=c1cc[nH]c(=O)[nH]1 [Uracil]	0%	0%	
		Cn1c(=O)c2[nH]cnc2n(C)c1=O [1,3-Dimethyl Xanthine (Theophylline), 1,3-Dimethyl Xanthine]	0%	0.2%	
		O=c1[nH]c(=O)c2[nH]cnc2[nH]1 [Xanthine]	0%	0%	
		Cn1c(=O)[nH]c2[nH]c(=O)[nH]c2c1=O [1-Methyluric acid]	0%	11%	
		Cn1cnc2[nH]c(=O)[nH]c(=O)c21 [7-Methyl Xanthine]	0%	0%	
		CC(=O)Nc1c(N)n(C)c(=O)n(C)c1=O [5-Acetamino-6-amino-1,3-dimethyluracil]	0%	0%	
		O=c1[nH]c(=O)c2[nH]c(=O)[nH]c2[nH]1 [Uric acid]	0%	0%	
